From US12083101B2, “Biaryl derivatives as YAP/TAZ-TEAD protein-protein interaction inhibitors” (Novartis AG, priority 2020, dated 2024)
pIC50: −log10 of the molar value.

Molecular target: Avi-humanTEAD4 217-434 / Cy5 labeled humanYAP 60-100 (Homo sapiens (Human), UniProt Q15561)
Experiment: TR-FRET YAP-TEAD4 in-vitro biochemical assay
Format: binding
Details: 1 nM Avi-humanTEAD4 217-434, 20 nM Cy5-humanYAP 60-100, 1 h room temperature
Description: N-terminus Cy5 labeled humanYAP^60-100 (20 nM) was then added to this preparation. Compounds were dissolved at 10 mM in 100% DMSO and serial dilutions were made in 100% DMSO. The diluted compound solutions were incubated in white 384-well plates (Greiner Bio-One) for 1 h at room temperature with the above described mix. The final DMSO concentration present in the assay was 1%. […] The IC50 values were estimated by fitting the data by nonlinear fit regression (GraphPad Prism).

Chain of Avi-humanTEAD4 217-434 / Cy5 labeled humanYAP 60-100 (Q15561 217-434): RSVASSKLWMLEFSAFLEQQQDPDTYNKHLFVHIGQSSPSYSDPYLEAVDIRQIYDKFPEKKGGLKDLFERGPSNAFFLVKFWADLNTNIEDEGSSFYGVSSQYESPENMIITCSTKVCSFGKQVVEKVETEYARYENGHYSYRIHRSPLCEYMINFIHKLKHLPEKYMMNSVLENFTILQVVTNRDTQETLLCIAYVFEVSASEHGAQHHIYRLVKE

SMILES	pIC50
CNC[C@]1(c2ccccn2)Oc2cc(F)c(Cl)c(-c3c(C(N)=O)ccc(OCCOC)c3F)c2[C@@H]1C (atropisomer, axis not shown) [Example 111, 2-((2R,3S,4S)-5-chloro-6-fluoro-3-methyl-2-((methylamino)methyl)-2-(pyridin-2-yl)-2,3-dihydrobenzofuran-4-yl)-3-fluoro-4-(2-methoxyethoxy)benzamide]	8.40
CS(=O)(=O)N1CCC(NC[C@@]2(c3ccccc3)Cc3c(cc(F)c(Cl)c3-c3c(C(N)=O)ccc(OC(F)F)c3F)O2)CC1 (atropisomer, axis not shown) [Example 63, 2-((2S,4S)-5-chloro-6-fluoro-2-(((1-(methylsulfonyl)piperidin-4-yl)amino)methyl)-2-phenyl-2,3-dihydrobenzofuran-4-yl)-4-(difluoromethoxy)-3-fluorobenzamide]	7.16
CO[C@H]1c2c(cc(F)c(Cl)c2-c2c(C(N)=O)ccc(OC(F)F)c2F)O[C@]1(CN[C@H]1CC[C@@H](O)CC1)c1ccccc1 (relative stereo) [Example 102b, 2-((2S,3S,4S)-5-chloro-6-fluoro-2-((((cis)-4-hydroxycyclohexyl)amino)methyl)-3-methoxy-2-phenyl-2,3-dihydrobenzofuran-4-yl)-4-(difluoromethoxy)-3-fluorobenzamide]	8.40
NC(=O)c1ccc(OC(F)F)c(F)c1-c1c(Cl)c(F)cc2c1C[C@@](CN[C@H]1CC[C@H](n3cnnn3)CC1)(c1ccccc1)O2 (atropisomer, axis not shown) [Example 79, 2-((2S,4S)-2-((((trans)-4-(1H-tetrazol-1-yl)cyclohexyl)amino)methyl)-5-chloro-6-fluoro-2-phenyl-2,3-dihydrobenzofuran-4-yl)-4-(difluoromethoxy)-3-fluorobenzamide]	7.96
COc1ccc(C(N)=O)c(-c2c(Cl)ccc3c2[C@H](O)[C@@](CN)(c2ccc[nH]c2=O)O3)c1F (atropisomer, axis not shown) [Example 92, 2-((2S,3S,4S)-2-(Aminomethyl)-5-chloro-3-hydroxy-2-(2-oxo-1,2-dihydropyridin-3-yl)-2,3-dihydrobenzofuran-4-yl)-3-fluoro-4-methoxybenzamide]	7.66
C[C@@H]1C[C@H](NC[C@@]2(c3ccccc3)Cc3c(cc(F)c(Cl)c3-c3c(C(N)=O)ccc(OCCO)c3F)O2)C[C@H](C)O1 (atropisomer, axis not shown) [Example 65a, 2-((2S,4S)-5-chloro-2-((((2R,4r,6S)-2,6-dimethyltetrahydro-2H-pyran-4-yl)amino)methyl)-6-fluoro-2-phenyl-2,3-dihydrobenzofuran-4-yl)-3-fluoro-4-(2-hydroxyethoxy)benzamide]	8.40
C[C@H]1c2c(cc(F)c(Cl)c2-c2c(C(N)=O)ccc(OC(F)F)c2F)O[C@]1(CN[C@H]1CC[C@@H](O)CC1)c1ccccc1 (atropisomer, axis not shown) [Example 115b, 2-((2S,3S,4S)-5-chloro-6-fluoro-2-((((cis)-4-hydroxycyclohexyl)amino)methyl)-3-methyl-2-phenyl-2,3-dihydrobenzofuran-4-yl)-4-(difluoromethoxy)-3-fluorobenzamide]	8.70
C[C@@H]1C[C@@H](NC[C@@]2(c3ccccc3)Cc3c(cc(F)c(Cl)c3-c3c(C(N)=O)ccc(OCCO)c3F)O2)C[C@H](C)O1 (atropisomer, axis not shown) [Example 65b, 2-((2S,4S)-5-chloro-2-((((2R,4s,6S)-2,6-dimethyltetrahydro-2H-pyran-4-yl)amino)methyl)-6-fluoro-2-phenyl-2,3-dihydrobenzofuran-4-yl)-3-fluoro-4-(2-hydroxyethoxy)benzamide]	6.34
COc1ccc(C(N)=O)c(-c2c(Cl)c(F)cc3c2C[C@](c2ccccc2)(C2COCCN2)O3)c1F (single isomer, unassigned) [Example 163]	6.89
